{
  "source": "patent US7557112B2",
  "about": "“Aromatic-ring-fused pyrimidine derivative” (Astellas Pharma Inc., priority 2004, dated 2009)",
  "key": {"ICR mice": {"test_system": "ICR mice", "assay": "Oral glucose tolerance test on normal mouse", "assay_type": "in vivo", "settings": "at 30 minutes after glucose loading, relative to control group", "description": "(2) Oral Glucose Tolerance Test on Normal Mouse\nIn this assay, preventive activities of test compounds against hyperglycemia following glucose loading were examined using normal mice and nateglinide, a commercially available oral anti-hyperglycemic agent, as a reference compound. The assay procedure is given below.\nICR mice (male, 6 weeks old) that had been preliminary bred for one week were fasted for 18 to 20 hours to use as test animals. Each test compound was dissolved in 0.5% methylcellulose solution and orally administered at 3 mg/kg (10 mg/kg for nateglinide) before glucose loading. Timing to administer the test compound was selected to be optimal for each test compound, which was 10 minutes before glucose loading for the compounds of the present invention or 30 minutes before glucose loading for nateglinide, which was a reference compound. The hypoglycemic rate (%) at 30 minutes after glucose loading was measured relative to the control group."}, "MIN6B1 cell": {"test_system": "MIN6B1 cell", "assay": "Assay for promoting activity on insulin secretion", "assay_type": "cell-based, mouse", "settings": "10 μM test compound, KRB-HEPES with 16.8 mM glucose, 37° C., 22 minutes; relative to DMSO = 100%", "description": "(1) Assay for Promoting Activity on Insulin Secretion\nIn this assay, promoting activities on insulin secretion of the test compounds were studied using MIN6B1 cell, which was a strain of mouse pancreatic β-cells, and glibenclamide, which was a commercially available insulin secretagogue, as a reference compound. The assay procedure is given below.\nMIN6B1 cells were seeded on a 48-well plate at a concentration of 1×10^5 cells/well (0.25 ml) (The medium was prepared by adding FCS (fetal calf serum) to DMEM (Dulbecco's Modified Eagle Medium) containing 25 mM glucose such that the FCS concentration became 10%). After two days, the medium was suctioned by an aspirator, each well washed four times with 0.2 ml of KRE-HEPES buffer [Kregs-Ringer-bicarbonate-N-2-hydroxyethylpiperazine-N′-2-ethanesulfonic acid; 130 mM NaCl, 4.7 mM KCl, 1.2 mM KH2PO4, 1.2 mM MgCl2.6H2O, 0.25 mM CaCl2.2H2O, 2.5 mM NaHCO3, 0.5% BSA, and 10 mM N-2-hydroxyethylpiperazine-N′-2-ethanesulfonic acid (pH 7.4)] containing 2.8 mM glucose warmed to 37° C., 0.2 ml of said buffer was again added, and the cells were incubated at 37° C. for 30 to 60 minutes. […] The samples were pipetted and diluted by 25 to 51 times, and the insulin concentrations were analyzed using an insulin assay kit (Rat Insulin [^125I] Biotrak Assay System with Magnetic Separation; Amersham BioScience K.K.). […]"}},
  "data": [
    {"smiles": "Fc1cc(-c2nc(N3CCSC3)c3sccc3n2)c(F)cc1Cl", "note": "[Example 99]", "values": [
      {"measurement": "Hypoglycemic rate, %", "setting": "ICR mice; 3 mg/kg orally, 10 minutes before glucose loading", "result": 36, "unit": "%"}
    ]},
    {"smiles": "COc1ccc(Cl)cc1C(=O)NCCc1ccc(S(=O)(=O)NC(=O)NC2CCCCC2)cc1", "note": "[Glibenclamide, glibenclamide]", "values": [
      {"measurement": "Promotion activity on insulin secretion, %", "setting": "MIN6B1 cell", "result": 122, "unit": "%"}
    ]},
    {"smiles": "CC(C)[C@H]1CC[C@H](C(=O)N[C@H](Cc2ccccc2)C(=O)O)CC1", "note": "[Nateglinide, nateglinide]", "values": [
      {"measurement": "Hypoglycemic rate, %", "setting": "ICR mice; 10 mg/kg orally, 30 minutes before glucose loading", "result": 26, "unit": "%"}
    ]}
  ]
}
